Experimental data reported in PMC6348446 (Journal of Medicinal Chemistry, 2018).
≈ marks a conversion by molar mass, not a printed value.

What was measured:
[1] = CHI LogD determination (reverse-phase HPLC); assay type: physicochemical; settings: reversed-phase HPLC (ACE Excel 3 SuperC18 column), pH 7.4; read-out: CHI LogD (pH7.4)
Experimental: removed from both acceptor and donor compartments and mixed with acetonitrile (80 µL) containing an internal standard. The samples were centrifuged (10 min, 5 °C, 3270 g) to sediment precipitated protein and sealed prior to UPLC-MS/MS analysis using a Xevo TQ-S Micro (Waters Corp, USA). Pe was calculated as shown in the below equation: […]
CA(t) = peak area of compound present in acceptor well at time t = 18000 s Cequi = [CD(t) x VD + CA(t) x VA] / (VD + VA)
VA = acceptor well volume
CD(t) = peak area of compound present in donor well at time t = 18000 s Recovery of compound from donor and acceptor wells was calculated and data was only accepted when recovery exceeded 70%.
Using a fast gradient, reverse-phase HPLC method to determine the chromatographic hydrophobicity index (CHI) was determined as described by Camurri and Zaramella (ref. 3) and Valko et al. (ref. 4). Briefly, by plotting the retention time of a set of reference […]
compounds against known CHI values. The CHI value of test compounds was then calculated according to their retention time.
Test compounds were prepared as 0.25 mM solutions in 50:50 acetonitrile:water and analysed by reversed-phase HPLC-UV (wavelength 254 nm) using a ACE Excel 3 SuperC18, 3 µm, 50 x 2.1 mm column with a gradient of aqueous phase (10 mM ammonium acetate, pH 7.4) and mobile phase (acetonitrile).
Intrinsic clearance (Cli) experiments
Test compound (0.5 µM) was incubated with female CD1 mouse or human (mixed gender) liver microsomes (Xenotech LLCTM; 0.5 mg/mL 50mM potassium phosphate buffer, pH7.4) and the reaction initiated with addition of excess NADPH (8 mg/mL 50 mM potassium phosphate buffer, pH7.4). Immediately, at time zero, then at 3, 6, 9, 15 and 30 minutes an aliquot (50 µL) of the incubation mixture was removed and mixed with acetonitrile (100 µL) to stop the reaction. Internal standard was added to all samples, the samples centrifuged to sediment precipitated protein and the plates then sealed prior to […] analysis using […]
a Xevo TQ-S Micro (Waters corporation, USA).
XLfit (IDBS, UK) was used to calculate the exponential decay and consequently the rate constant (k) from the ratio of peak area of test compound to internal standard at each timepoint. The rate of intrinsic clearance (CLi) of each test compound was then calculated using the following calculation:
CLi(mL/min/g liver) = k x V x Microsomal protein yield
Where V (mL/mg protein) is the incubation volume/mg protein added and microsomal protein yield is taken as 52.5 mg protein/ g liver. Verapamil (0.5 µM) was used as a positive control to confirm acceptable assay performance.

Plasma stability, mouse = assay type: in vitro ADME; settings: 10 µM compound, 37 °C; for half-life at 10 µM: mouse, plasma, pH 7.4, read-out: Plasma stability T 1/2, Mouse
Experimental: (§1) Test compound (10 µM) was incubated in pre-warmed plasma at 37 ᵒC (that is buffered to pH 7.4 in ratio of 70:30 plasma to buffer). Immediately, at time zero, then at 30, 60, 120, and 180 min, a 50 µL aliquot of the incubation mixture was removed and mixed with 200 µL acetonitrile containing Donepezil as the internal standard (50 ng/ml) to stop the reaction. The samples were centrifuged to sediment the precipitated protein and the plates then sealed prior to UPLC-MS/MS analysis using a Xevo TQ-S Micro (Waters Corporation, USA).
(§2) XLfit (IDBS, UK) was used to calculate the exponential decay and consequently the rate constant (k) from the ratio of peak area of test compound to internal standard at each time point. The half-life was calculated for each test compound from the rate by using the […]
(§3) Parallel Artificial Membrane Permeability Assay (PAMPA)
(§4) PAMPA was performed using a 96-well pre-coated BD Gentest™ PAMPA plate (BD Biosciences, U.K.). Each well was divided into two chambers; donor and acceptor, separated by a lipid-oil-lipid tri-layer constructed in a porous filter. The effective permeability, Pe, of the compound was measured at pH 7.4. Stock solutions (5 mM) of the compound were prepared in DMSO. The compound was then further diluted to 10 µM in phosphate buffered […]
(§5) saline at pH 7.4. […] The compound […]
(§6) dissolved in phosphate buffered saline was then added to the donor side of the membrane and phosphate buffered saline without compound was added to the acceptor side. The PAMPA plate was left at room temperature for 5 h. After which time, an aliquot (100 µL) was then

[2] = Aqueous kinetic solubility by laser nephelometry; assay type: physicochemical; settings: for solubility kinetic: MilliQ water with 2.5% DMSO
Experimental: The aqueous solubility of the test compounds was measured using laser nephelometry.
Compounds were subject to serial dilution from 10 mM to 0.5 mM in DMSO. An aliquot was then mixed with MilliQ water to obtain an aqueous dilution plate with a final concentration range of 250 – 12 µM, with a final DMSO concentration of 2.5%. Triplicate aliquots were transferred to a flat-bottomed polystyrene plate which was immediately read on the NEPHELOstar (BMG Lab Technologies). The amount of laser scatter caused by insoluble particulates (relative nephelometry units, RNU) was plotted against compound concentration using a segmental regression fit, with the point of inflection being quoted as the compounds

Plasma stability, human = assay type: in vitro ADME; settings: 10 µM compound, 37 °C; for half-life at 10 µM: human, plasma, pH 7.4, read-out: Plasma stability T 1/2, Human
Experimental: as §1, §2, §3, §4, §5, §6

BRD9 = molecular target: T1, BRD9 (Homo sapiens, UniProt Q9H8M2); experiment: Western blot of BRD9 levels in RI-1 cells after compound treatment; assay type: cell-based; settings: for BRD9 degradation: 4 h
T1 construct: Western blot analysis of BRD9 and BRD7 levels after treatment of HeLa cells; endogenous in cells; host or cells: HeLa
T1 sequence (Q9H8M2 1-597): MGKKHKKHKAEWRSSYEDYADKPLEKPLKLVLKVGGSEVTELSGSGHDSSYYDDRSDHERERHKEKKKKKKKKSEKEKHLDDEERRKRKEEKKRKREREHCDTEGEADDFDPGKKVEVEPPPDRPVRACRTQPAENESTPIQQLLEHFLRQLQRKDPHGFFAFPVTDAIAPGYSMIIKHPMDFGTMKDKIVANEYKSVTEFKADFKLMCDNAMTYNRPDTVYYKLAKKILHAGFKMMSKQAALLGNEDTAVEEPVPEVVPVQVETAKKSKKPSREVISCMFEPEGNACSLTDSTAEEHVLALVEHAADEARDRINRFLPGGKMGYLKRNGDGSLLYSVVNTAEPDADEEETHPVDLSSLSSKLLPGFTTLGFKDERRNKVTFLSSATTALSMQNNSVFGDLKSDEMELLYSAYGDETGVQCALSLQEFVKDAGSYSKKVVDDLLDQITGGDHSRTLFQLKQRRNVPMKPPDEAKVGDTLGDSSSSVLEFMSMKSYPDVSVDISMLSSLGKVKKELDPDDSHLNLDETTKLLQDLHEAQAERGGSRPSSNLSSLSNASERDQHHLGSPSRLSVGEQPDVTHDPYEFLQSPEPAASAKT

chromatographic logD [1] | Plasma stability T 1/2, Mouse (Plasma stability, mouse) | half-life at 10 µM (Plasma stability, mouse) | Aqueous Solubility (Kinetic) ([2]; 2.5% DMSO, listed as VZ185) | solubility kinetic [2] | Plasma stability T 1/2, Human (Plasma stability, human) | half-life at 10 µM (Plasma stability, human) | remaining activity at 1 µM (BRD9; 2 h, Table 3, % of total protein remaining relative to 0.1% DMSO vehicle, 1 μM compound, RI-1) | decrease of BRD9 level (BRD9; RI-1 cells, 100 nM, 30 min) | BRD9 degradation (BRD9; RI-1 cells, 100 nM) | concentration window of maximal protein degradation of BRD9 (BRD9; RI-1 cells, 2 and 8 h) | SMILES
2 |  |  |  |  |  |  |  |  |  |  | COc1cc(-c2cn(C)c(=O)c3cnccc23)cc(OC)c1CN1CCN(CCOCCOCCOc2cc(-c3scnc3C)ccc2CNC(=O)[C@@H]2C[C@@H](O)CN2C(=O)[C@@H](NC(=O)C2(F)CC2)C(C)(C)C)CC1 [Compound 26, (2S,4R)-N-(2-(2-(2-(2-(4-(2,6-Dimethoxy-4-(2-methyl-1-oxo-1,2-dihydro-2,7-naphthyridin-4-yl)benzyl)piperazin-1-yl)ethoxy)ethoxy)ethoxy)-4-(4-methylthiazol-5-yl)benzyl)-1-((S)-2-(1-fluorocyclopropane-1-carboxamido)-3,3-dimethylbutanoyl)-4-hydroxypyrrolidine-2-carboxamide]
2.3 | high stabilities | > 3 h | ~100 µM | 85 µM (≈ 84.6 µg/mL) | high stabilities | > 3 h | 100% | more than 50% | more than 90% | 10 to 100 nM | COc1cc(-c2cn(C)c(=O)c3cnccc23)cc(OC)c1CN1CCN(CCCCCOc2cc(-c3scnc3C)ccc2CNC(=O)[C@@H]2C[C@@H](O)CN2C(=O)[C@@H](NC(=O)C2(F)CC2)C(C)(C)C)CC1 [Compound 51, (2S,4R)-N-(2-((5-(4-(2,6-Dimethoxy-4-(2-methyl-1-oxo-1,2-dihydro-2,7-naphthyridin-4-yl)benzyl)piperazin-1-yl)pentyl)oxy)-4-(4-methylthiazol-5-yl)benzyl)-1-((S)-2-(1-fluorocyclopropane-1-carboxamido)-3,3-dimethylbutanoyl)-4-hydroxypyrrolidine-2-carboxamide]
2.4 |  | > 3 h |  | 79 µM (≈ 78.6 µg/mL) |  | > 3 h |  |  | no degradation |  | COc1cc(-c2cn(C)c(=O)c3cnccc23)cc(OC)c1CN1CCN(CCCCCOc2cc(-c3scnc3C)ccc2CNC(=O)[C@@H]2C[C@H](O)CN2C(=O)[C@@H](NC(=O)C2(F)CC2)C(C)(C)C)CC1 [cisVZ185]
